Test results reported in PMC9992173, “Mapping of the extracellular RBP4 ligand binding domain on the RBPR2 receptor for Vitamin A transport” (Frontiers in Cell and Developmental Biology, 2023).
No end group written: not given here.

Target: T1, mouse RBP4 (Mus musculus, UniProt Q00724)
T1 construct: 6XHis; made in house; host or cells: E. coli
Experiment: Surface plasmon resonance (SPR) binding of SYL-motif peptides to immobilized RBP4
Conditions: SPR affinity fit, Figure 6B; repeated in the discussion as calculated binding affinity; read-out: Best-fit values Kd
Method: Purified RBP4 protein with >90% purity and 0.56 mg/mL concentration was immobilized on Biacore Sensor Chip CM5 (ITDD Biacore S200 Surface Plasmon Resonance instrument at University of Minnesota). The two-flow cell surface activated for using one as blank and other as test. Using Amine Coupling Kit (Cat. No. BR100050; Cytiva, Marlborough, MA, US) 1-ethyl-3-(3-dimethylaminopropyl) carbodiimide hydrochloride (EDC), N-hydroxysuccinimide (NHS), after surface activation, the purified RBP4 with immobilization buffer 10 mM Sodium acetate, pH 5.0, was immobilized with target of 1,200 Response Unit (RU) for achieving Rmax of 30RU in kinetic study. The reaction stopped and washed with Ethanolamine. The system was re-primed with running buffer PBST (phosphate-buffered saline solution with a 0.05% Tween20 detergent solution). The kinetic assay performed on the two flow cells, the blank was used as reference cell and the active cell with RBP4 was used for the binding study. […] The program was run and non-specific binding on the reference cell subtracted bulk refractive index from the active sensorgram and analyzed for the association, dissociation and stabilization of the reads. […]

HVRDKLDMFEDKLESYLTHMNETGTLTPIILQVKELISVTKG [mouse RBPR2]
Kd: 25.4 µM
